Test results from ChEMBL document CHEMBL5465560, “Selectivity Literature for EUbOPEN Chemogenomic Library” (2024).

Legend:
[1] = target: Serine/threonine-protein kinase N2 (Homo sapiens, UniProt Q16513); conditions: at 10 µM
[2] = target: Ephrin type-A receptor 4 (Homo sapiens, UniProt P54764); assay: Selectivity interaction (KinomeScan (DiscoverX)) EUB0001079a EPHA4; conditions: at 1 µM
[3] = target: STE20/SPS1-related proline-alanine-rich protein kinase (Homo sapiens) (UniProt Q9UEW8); assay: Selectivity interaction (KinomeScan (DiscoverX)) EUB0001049a STK39; conditions: at 1 µM
[4] = target: Ribosomal protein S6 kinase alpha-1 (Homo sapiens, UniProt Q15418); assay: Selectivity interaction (ProQinase) EUB0000171b RPS6KA1
[5] = target: Serine/threonine-protein kinase/endoribonuclease IRE1 (Homo sapiens) (UniProt O75460); assay: Selectivity interaction (ActivX KiNativ screen (ex vivo kinase selectivity in human PBMCs)) EUB0001619a ERN1; type: cell-based; conditions: PBMC, at 1 µM
[6] = target: Cyclin-dependent kinase 3 (Homo sapiens) (UniProt Q00526); assay: Selectivity interaction (KinomeScan (DiscoverX)) EUB0001619a CDK3; conditions: at 1 µM
[7] = target: T1, Receptor-interacting serine/threonine-protein kinase 1 (Homo sapiens) (UniProt Q13546); assay: Selectivity interaction (KinomeScan (DiscoverX)) EUB0000607a RIPK1; conditions: at 10 µM
T1 sequence (whole entry): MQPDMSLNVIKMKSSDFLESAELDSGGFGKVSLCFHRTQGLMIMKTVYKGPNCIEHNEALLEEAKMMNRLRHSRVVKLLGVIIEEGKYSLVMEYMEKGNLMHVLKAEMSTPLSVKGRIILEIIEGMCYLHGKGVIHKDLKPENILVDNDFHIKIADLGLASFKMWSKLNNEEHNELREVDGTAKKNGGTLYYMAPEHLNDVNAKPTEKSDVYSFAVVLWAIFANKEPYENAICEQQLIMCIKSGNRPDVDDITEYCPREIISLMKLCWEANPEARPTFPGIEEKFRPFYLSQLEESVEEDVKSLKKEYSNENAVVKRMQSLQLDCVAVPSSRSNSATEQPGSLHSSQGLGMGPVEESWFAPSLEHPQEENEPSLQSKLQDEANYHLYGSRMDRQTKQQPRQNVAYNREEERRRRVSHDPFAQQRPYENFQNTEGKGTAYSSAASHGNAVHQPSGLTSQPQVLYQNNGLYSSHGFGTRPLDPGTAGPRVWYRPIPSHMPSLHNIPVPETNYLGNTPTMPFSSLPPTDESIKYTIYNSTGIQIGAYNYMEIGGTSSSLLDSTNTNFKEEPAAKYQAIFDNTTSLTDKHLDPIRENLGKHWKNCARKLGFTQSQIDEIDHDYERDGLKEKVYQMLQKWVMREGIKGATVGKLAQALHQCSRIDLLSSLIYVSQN

[8] = target: Ephrin type-A receptor 2 (Homo sapiens) (UniProt P29317); assay: Selectivity interaction (KinomeScan (DiscoverX)) EUB0000655a EPHA2; conditions: at 10 µM
[9] = target: T2, Mitogen-activated protein kinase kinase kinase 5 (Homo sapiens) (UniProt Q99683); assay: Selectivity interaction (KinomeScan (DiscoverX)) EUB0000092b MAP3K5; conditions: at 10 µM
T2 sequence (whole entry): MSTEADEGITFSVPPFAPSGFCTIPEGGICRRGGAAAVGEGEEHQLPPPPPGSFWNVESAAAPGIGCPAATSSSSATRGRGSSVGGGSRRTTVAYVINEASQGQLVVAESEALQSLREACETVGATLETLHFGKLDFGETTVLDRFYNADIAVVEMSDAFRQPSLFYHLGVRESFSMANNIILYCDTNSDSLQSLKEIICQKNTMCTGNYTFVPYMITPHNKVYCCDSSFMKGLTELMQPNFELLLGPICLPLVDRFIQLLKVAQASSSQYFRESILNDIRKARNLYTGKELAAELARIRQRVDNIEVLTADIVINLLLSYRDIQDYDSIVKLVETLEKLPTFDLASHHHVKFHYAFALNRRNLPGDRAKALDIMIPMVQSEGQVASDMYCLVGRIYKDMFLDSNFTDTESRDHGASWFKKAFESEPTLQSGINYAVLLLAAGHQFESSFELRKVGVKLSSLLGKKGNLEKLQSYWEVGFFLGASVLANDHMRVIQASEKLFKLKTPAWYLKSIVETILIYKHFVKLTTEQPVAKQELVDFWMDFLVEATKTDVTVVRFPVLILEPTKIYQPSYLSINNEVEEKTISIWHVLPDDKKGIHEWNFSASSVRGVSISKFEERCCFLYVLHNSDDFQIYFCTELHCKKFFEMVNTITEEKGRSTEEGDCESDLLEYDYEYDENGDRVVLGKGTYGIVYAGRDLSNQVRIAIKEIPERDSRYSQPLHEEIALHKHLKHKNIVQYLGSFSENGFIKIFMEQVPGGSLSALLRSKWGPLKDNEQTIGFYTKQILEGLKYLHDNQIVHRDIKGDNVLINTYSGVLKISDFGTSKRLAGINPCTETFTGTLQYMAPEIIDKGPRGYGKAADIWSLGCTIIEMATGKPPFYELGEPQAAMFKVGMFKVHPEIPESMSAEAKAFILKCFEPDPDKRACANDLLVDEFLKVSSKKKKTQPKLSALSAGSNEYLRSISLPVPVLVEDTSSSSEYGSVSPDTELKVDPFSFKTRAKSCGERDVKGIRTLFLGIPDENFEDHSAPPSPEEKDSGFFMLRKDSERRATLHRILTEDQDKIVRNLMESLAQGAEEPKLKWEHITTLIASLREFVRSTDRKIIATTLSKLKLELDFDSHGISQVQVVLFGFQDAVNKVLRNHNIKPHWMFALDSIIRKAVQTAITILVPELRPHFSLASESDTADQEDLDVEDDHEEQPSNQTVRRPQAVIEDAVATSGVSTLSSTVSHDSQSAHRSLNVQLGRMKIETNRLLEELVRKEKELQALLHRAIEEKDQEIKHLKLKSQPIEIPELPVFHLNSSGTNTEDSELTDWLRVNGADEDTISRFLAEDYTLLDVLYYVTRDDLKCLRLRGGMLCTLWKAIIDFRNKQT

[10] = target: T3, Mitogen-activated protein kinase 12 (Homo sapiens) (UniProt P53778); assay: Selectivity interaction (Ambit KINOMEscan and KiNATiv profiling in Jurkat cells) EUB0000090b MAPK12; type: cell-based; conditions: at 1 µM
T3 sequence (whole entry): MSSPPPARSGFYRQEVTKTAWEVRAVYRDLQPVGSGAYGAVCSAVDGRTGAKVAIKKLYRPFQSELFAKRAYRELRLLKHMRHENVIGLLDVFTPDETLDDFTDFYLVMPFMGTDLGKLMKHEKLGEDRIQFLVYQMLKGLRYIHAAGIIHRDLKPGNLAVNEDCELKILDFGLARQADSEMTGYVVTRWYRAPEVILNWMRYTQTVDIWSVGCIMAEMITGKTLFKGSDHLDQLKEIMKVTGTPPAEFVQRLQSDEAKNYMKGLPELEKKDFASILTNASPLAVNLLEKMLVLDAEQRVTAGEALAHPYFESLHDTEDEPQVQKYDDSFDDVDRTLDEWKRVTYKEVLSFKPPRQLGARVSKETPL

Ribosomal protein S6 kinase alpha-1, sequence (Q15418 whole entry): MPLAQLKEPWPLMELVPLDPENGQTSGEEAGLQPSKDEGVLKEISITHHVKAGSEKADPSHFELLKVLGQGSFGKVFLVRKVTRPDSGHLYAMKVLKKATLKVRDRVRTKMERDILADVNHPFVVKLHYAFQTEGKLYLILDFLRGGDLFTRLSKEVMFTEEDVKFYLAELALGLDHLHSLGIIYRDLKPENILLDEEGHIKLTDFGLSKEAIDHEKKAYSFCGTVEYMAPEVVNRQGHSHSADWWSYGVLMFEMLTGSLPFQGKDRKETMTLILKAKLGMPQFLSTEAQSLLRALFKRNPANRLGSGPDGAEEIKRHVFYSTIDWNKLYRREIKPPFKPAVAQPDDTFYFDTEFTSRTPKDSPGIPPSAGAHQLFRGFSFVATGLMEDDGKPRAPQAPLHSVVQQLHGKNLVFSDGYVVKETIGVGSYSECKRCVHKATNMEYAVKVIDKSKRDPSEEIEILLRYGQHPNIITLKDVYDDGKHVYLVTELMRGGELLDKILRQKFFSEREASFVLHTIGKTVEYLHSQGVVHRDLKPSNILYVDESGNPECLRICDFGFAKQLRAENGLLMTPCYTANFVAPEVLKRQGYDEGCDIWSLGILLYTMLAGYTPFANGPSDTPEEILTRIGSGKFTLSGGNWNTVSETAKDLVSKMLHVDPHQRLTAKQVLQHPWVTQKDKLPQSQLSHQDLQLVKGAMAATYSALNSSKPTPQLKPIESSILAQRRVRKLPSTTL
Ephrin type-A receptor 2 (Homo sapiens), sequence (P29317 whole entry): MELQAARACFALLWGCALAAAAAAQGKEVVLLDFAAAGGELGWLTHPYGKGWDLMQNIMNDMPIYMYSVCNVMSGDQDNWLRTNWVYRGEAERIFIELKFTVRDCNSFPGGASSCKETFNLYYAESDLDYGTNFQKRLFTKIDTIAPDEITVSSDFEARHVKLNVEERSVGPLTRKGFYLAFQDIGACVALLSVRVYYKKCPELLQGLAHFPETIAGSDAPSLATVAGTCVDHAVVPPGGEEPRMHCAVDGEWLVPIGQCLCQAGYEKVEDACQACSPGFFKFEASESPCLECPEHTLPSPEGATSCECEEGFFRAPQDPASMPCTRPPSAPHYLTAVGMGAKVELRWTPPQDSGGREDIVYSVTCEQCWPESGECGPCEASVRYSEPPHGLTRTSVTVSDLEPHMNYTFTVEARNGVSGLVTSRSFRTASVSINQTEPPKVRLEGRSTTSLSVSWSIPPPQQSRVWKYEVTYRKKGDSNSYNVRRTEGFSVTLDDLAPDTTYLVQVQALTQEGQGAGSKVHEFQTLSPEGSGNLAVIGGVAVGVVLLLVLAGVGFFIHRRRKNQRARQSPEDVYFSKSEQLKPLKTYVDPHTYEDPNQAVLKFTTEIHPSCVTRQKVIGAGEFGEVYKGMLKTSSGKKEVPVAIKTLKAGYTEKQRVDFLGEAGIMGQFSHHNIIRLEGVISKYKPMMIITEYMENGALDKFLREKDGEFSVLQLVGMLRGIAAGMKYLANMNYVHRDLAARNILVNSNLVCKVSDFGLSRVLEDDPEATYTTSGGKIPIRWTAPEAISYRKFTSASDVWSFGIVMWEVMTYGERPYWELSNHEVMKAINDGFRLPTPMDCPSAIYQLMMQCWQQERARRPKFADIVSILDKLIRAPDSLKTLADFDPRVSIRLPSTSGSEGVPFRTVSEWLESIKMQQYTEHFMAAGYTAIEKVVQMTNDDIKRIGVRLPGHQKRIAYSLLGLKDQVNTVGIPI
Serine/threonine-protein kinase N2, sequence (Q16513 whole entry, looked up): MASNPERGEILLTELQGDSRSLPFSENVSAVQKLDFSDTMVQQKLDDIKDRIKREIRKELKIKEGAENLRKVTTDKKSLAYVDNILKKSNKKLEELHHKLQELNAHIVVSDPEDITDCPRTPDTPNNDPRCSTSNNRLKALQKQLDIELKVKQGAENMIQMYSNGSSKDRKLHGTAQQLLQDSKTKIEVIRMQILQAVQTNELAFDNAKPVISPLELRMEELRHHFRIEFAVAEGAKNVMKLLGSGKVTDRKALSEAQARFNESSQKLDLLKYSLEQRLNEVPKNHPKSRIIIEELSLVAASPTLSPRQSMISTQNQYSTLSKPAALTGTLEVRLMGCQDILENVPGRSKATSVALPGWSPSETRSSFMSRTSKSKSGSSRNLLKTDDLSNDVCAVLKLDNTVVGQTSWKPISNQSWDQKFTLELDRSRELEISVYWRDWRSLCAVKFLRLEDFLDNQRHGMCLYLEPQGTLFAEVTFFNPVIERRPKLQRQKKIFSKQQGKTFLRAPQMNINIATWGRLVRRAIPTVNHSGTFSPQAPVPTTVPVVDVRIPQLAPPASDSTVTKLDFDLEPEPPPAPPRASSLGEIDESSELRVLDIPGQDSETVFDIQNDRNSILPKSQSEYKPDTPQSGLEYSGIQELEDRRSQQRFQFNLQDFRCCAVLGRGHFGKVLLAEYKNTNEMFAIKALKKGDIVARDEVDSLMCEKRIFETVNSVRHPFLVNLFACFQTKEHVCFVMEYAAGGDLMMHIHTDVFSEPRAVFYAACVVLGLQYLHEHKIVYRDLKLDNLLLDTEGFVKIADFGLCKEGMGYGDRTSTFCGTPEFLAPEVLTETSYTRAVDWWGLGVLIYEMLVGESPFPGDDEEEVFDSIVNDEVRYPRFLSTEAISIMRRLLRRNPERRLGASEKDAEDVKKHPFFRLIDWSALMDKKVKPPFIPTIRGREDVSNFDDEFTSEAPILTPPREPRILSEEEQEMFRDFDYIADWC
Ephrin type-A receptor 4, sequence (P54764 whole entry): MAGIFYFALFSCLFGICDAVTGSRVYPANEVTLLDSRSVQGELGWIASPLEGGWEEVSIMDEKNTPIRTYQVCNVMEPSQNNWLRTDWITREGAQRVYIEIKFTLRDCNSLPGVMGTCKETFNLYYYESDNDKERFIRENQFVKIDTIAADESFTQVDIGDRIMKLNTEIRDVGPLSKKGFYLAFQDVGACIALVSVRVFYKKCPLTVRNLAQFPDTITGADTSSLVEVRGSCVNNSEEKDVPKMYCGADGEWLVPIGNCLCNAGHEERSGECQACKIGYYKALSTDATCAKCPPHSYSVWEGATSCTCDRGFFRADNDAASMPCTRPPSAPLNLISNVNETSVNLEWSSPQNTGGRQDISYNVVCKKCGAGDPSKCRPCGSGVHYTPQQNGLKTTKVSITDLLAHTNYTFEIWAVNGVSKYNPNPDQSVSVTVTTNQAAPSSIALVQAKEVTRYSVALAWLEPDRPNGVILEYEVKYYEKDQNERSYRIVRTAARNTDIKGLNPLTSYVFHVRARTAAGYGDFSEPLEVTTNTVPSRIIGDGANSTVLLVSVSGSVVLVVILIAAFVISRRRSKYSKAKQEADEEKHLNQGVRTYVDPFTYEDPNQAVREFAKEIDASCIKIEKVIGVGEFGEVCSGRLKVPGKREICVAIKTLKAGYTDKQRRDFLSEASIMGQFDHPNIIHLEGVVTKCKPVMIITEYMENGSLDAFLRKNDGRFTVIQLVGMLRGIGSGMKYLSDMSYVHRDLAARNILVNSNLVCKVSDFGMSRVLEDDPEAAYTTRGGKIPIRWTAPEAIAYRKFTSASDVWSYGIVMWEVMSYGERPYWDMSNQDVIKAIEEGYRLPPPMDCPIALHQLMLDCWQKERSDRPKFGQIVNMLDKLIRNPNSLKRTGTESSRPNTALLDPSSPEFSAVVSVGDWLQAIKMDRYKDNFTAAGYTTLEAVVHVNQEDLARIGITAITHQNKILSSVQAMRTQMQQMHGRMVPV
Cyclin-dependent kinase 3 (Homo sapiens), sequence (Q00526 whole entry, looked up): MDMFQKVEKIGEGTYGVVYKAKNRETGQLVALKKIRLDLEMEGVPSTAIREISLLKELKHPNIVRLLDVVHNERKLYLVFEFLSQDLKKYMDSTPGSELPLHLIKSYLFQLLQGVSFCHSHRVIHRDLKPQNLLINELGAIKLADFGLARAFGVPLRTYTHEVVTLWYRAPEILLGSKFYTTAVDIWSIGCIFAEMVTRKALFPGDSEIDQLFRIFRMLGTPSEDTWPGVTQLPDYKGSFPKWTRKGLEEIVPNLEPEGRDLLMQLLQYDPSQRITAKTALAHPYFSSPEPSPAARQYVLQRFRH
Serine/threonine-protein kinase/endoribonuclease IRE1 (Homo sapiens), sequence (O75460 19-977 limits assumed): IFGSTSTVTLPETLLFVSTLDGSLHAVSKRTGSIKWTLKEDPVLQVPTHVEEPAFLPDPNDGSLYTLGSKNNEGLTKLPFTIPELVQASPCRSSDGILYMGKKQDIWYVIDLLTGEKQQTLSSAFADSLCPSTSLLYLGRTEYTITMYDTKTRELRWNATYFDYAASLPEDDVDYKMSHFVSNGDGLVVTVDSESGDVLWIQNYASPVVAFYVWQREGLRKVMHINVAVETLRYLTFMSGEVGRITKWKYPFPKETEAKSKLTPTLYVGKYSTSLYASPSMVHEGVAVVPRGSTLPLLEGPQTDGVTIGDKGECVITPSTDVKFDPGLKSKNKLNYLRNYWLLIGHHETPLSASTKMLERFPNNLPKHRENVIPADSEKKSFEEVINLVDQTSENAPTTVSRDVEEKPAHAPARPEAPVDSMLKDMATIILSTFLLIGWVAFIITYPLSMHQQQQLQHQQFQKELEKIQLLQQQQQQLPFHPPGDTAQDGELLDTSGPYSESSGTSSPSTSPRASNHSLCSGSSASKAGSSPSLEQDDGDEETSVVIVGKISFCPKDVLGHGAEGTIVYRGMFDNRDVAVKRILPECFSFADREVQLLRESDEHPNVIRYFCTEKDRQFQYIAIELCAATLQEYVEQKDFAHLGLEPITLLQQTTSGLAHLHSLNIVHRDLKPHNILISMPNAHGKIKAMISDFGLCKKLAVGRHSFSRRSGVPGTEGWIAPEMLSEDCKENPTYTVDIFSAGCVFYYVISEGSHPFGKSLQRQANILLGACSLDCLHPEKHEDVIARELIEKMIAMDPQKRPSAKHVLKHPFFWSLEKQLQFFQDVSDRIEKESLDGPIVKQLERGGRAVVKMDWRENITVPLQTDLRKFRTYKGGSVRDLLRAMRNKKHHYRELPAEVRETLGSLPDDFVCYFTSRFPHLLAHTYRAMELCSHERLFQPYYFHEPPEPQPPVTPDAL

Molecule `COCC(=O)NC/C=C/c1ccc2ncnc(Nc3ccc(Oc4ccc(C)nc4)c(C)c3)c2c1` [CP-724714] has a % of control [1] of 99%.
For `Nc1cnc(N2CCc3cc(S(=O)(=O)Nc4c(F)cc(Cl)cc4F)cc(N4CCCC4=O)c32)nc1` [TP-020n], the % of control [2] was 100%.
Work on `COc1cc(Nc2nc(C)cc(-c3cnn4nc(OC)ccc34)n2)cc(C(F)(F)F)c1` yielded a % of control [3] of 64%.
`C=CC(=O)Nc1cccc(C(=O)Nc2ccc(Nc3cc(-c4[nH]c(SC)nc4C)ccn3)cc2)c1` gave a % of control ([4]; at 1 µM) of 82% and a % of control ([4]; at 5 µM) of 64%.
`N#Cc1cccc(-c2c[nH]c3ncnc(N4CCOCC4)c23)c1` was tested, and the % of inhibition [5] was 2% and the % of control [6] was 93%.
`CNC(=O)Nc1ccc(-c2nc(N3CC4CCC(C3)O4)c3cnn(C4CCC5(CC4)OCCO5)c3n2)cc1` gave a % of control [7] of 83%.
Work on `CN(C)CCOc1ccc(-c2nc(-c3ccncc3)c(-c3ccc4c(c3)CC/C4=N\O)[nH]2)cc1` yielded a % of control [8] of 83%.
`CCC(=O)N1CCN(c2ccc(-n3c(=O)ccc4cnc5ccc(-c6cnc7ccccc7c6)cc5c43)cc2C(F)(F)F)CC1` gave a % of control [9] of 100%.
With `CN(C)C/C=C/C(=O)Nc1ccc(C(=O)N2CCCC(Nc3ncc(Cl)c(-c4c[nH]c5ccccc45)n3)C2)cc1` (stereo unspecified) the % of control [10] was 78%.
